Tests used:
[1] = Encapsulation efficiency of RNA (QUANT-IT RIBOGREEN RNA assay); type: physicochemical
In short: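 RiboGreen fluorescence (ex ~480, em ~520 nm) measured after 15 min at 37 °C on samples at ~5 μg/mL in TE, pH 7.5, ± 2% Triton X-100 solution. After blank subtraction, free RNA is given as intact-sample signal divided by disrupted-sample signal.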

[2] = Particle size and polydispersity index of nanoparticle compositions (Zetasizer Nano ZS); type: physicochemical
In short: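 Zetasizer Nano ZS; samples in 1×PBS; read-out: particle size plus polydispersity index.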

hEPO mRNA expression [3] = assay: Expression of hEPO in CD-1 mice; type: in vivo; settings: Table 7e; hEPO expression, CD-1 mice, 0.5 mpk
Description: FIG. 12 is a set of graphs illustrating hEPO expression levels in CD-1 mice dosed with compounds of the disclosure, compared to MC3. PBS is used as control. […] In graphs A-C numbers 1-14 refer to compositions containing the following: 1: Compound 73, 2: Compound 80, 3: Compound 70; 4: Compound 81; 5: Compound 69; 6: Compound 82; 7: Compound 83; 8: Compound 62; 9: Compound 84; 10: Compound 85; 11: Compound 86; 12: Compound 87; 13: MC3; 14: PBS.
FIG. 13 is a graph showing hEPO levels (pg/mL) in CD-1 mice up to ˜25 h after administration of a nanoparticle composition containing compounds of the disclosure, compared to a composition containing MC3. Numbers 1-13 refer to compositions containing the following: 1: Compound 73, 2: Compound 80, 3: Compound 70; 4: Compound 81; 5: Compound 69; 6: Compound 82; 7: Compound 83; 8: Compound 62; 9: Compound 84; 10: Compound 85; 11: Compound 86; 12: Compound 87; 13: MC3. […]

[4] = pKa of nanoparticle compositions; type: physicochemical; settings: Table 1; rows without footnote mark
hEPO mRNA expression [5] = assay: Expression of hEPO in rats after intravenous administration; type: in vivo; settings: hEPO expression in S.D. rats; for AUC/MC3 0.1 mpk / AUC/MC3 1 mpk: relative to MC3
Protocol: PBS (phosphate buffered saline) is used as control.
Formulations were prepared according to Table 5 and included mRNA encoding hEPO.
[…] After the 48 hour time point, livers and spleens were harvested and frozen.

[6] = system: luciferase (Luc) mRNA expression; assay: Expression of Luc induced by sample formulations, whole-body bioluminescence after intravenous administration; type: in vivo; settings: Table 2; mice, i.v., 0.5 mg/kg, 6 hours
In short: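 Read-out is whole-body bioluminescence at 3, 6 and 24 h after a single intravenous dose of 0.5 mg/kg Luc mRNA in nanoparticle formulations. Groups of n=6 mice; PBS and standard MC3 formulation as references.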

[7] = system: modified luciferase expression; assay: Expression of Luc in different organs (liver, lung, spleen, femur) 6 hours after intravenous administration; type: in vivo; settings: Table 3, mice, i.v., 0.5 mpk
Protocol: The efficacy of the nanoparticle compositions presented in Tables 1, 1a, 17-1, 19-1, 20-1 and 21-1 was further evaluated by measuring the expression of modified luciferase in the liver, lung, spleen, and femur upon administration of a given composition. Formulations were administered intravenously to mice (n=3) at a dosage of 0.5 mpk and bioluminescence measured after 6 hours. The standard MC3 formulation and a PBS control were also tested.

[8] = Lipid levels in liver and spleen 48 hours after administration; type: in vivo, rats; settings: rat liver, 48 h
Protocol: Formulations were administered intravenously to rats (n=3 or 6) at a dosage of 0.2 mg/kg or 0.5 mg/kg (mpk) and hEPO levels measured at 3, 6, and 24 hour time points. After the 48 hour time point, livers and spleens were harvested and frozen.
The amount of lipid in the liver and spleen 48 hours after administration of a nanoparticle composition was also measured. […] In contrast, approximately 60% of doses including MC3 or Compound 22 remained in the liver after 48 hours. Less than 3% of the dose remained in the spleen for each composition tested.

[9] = Lipid clearance: % dose remaining in mouse liver 6 h and 24 h after administration of nanoparticle compositions; type: in vivo, CD-1 mice
Description: In contrast, hEPO expression in rats induced by administration of a nanoparticle composition including a compound according to one of formulae (I), (Ia1)-(Ia6), (Ib), (II), (IIa), (III), and (IIIa) was substantially […] than that measured for MC3. […] Table 7c and 7d show additional protein expressions and clearance data from compositions with various compounds disclosed herein as compared to with MC3.

[10] = Table 1, rows without footnote mark
[11] = Table 1, rows without footnote mark (lipid:DOPE:cholesterol:PEG-DMG 40:20:38.5:1.5, Luc mRNA; MC3 standard formulation)

SMILES	EE (%) ([1]; Table 1b)	PDI ([2]; Table 1b)	Size (nm) ([2]; Table 1b)	AUC (p/s*h) CD-1 mice 0.5 mpk (hEPO mRNA expression [3])	further results
CCCCCCCCCN(CCCCCCCCC)CCN(CCCCCCCCC)CC(=O)N1CCC(CN(CCCCCCCCC)CCCC(=O)OCCCCC)C1 (stereo not drawn) [Compound 82, Pentyl 4-(((1-(N-(2-(dinonylamino)ethyl)-N-nonylglycyl)pyrrolidin-3-yl)methyl)(nonyl)amino)butanoate]	99.23%	0.24	76.1 nm	1.29E+8 p/s*h	
CCCCCCCCCN(CCCC(=O)OCCCCC)CCC1CCCN(C(=O)CN(CCCCCCCCC)CCN(CCCCCCCCC)CCCCCCCCC)C1 (stereo not drawn) [Compound 80, Pentyl 4-((2-(1-(N-(2-(dinonylamino)ethyl)-N-nonylglycyl)piperidin-3-yl)ethyl)(nonyl)amino)butanoate]	98.93%	0.2	65.8 nm	6.24E+7 p/s*h	
CCCCCCCCCN(CCCCCCCCC)CCC1CCN(C(=O)CN(CCCCCCCCC)CCN(CCCCCCCCC)CCCCCCCCC)CC1 [Compound 49, 2-((2-(Dinonylamino)ethyl)(nonyl)amino)-1-(4-(2-(dinonylamino)ethyl)piperidin-1-yl)ethan-1-one]					pKa [4]: 6.4; AUC (0.1 mpk) (hEPO mRNA expression [5]): 5.98E+06; AUC/MC3 0.1 mpk (hEPO mRNA expression [5]): 3.7; AUC (1 mpk) (hEPO mRNA expression [5]): 1.44E+08; AUC/MC3 1 mpk (hEPO mRNA expression [5]): 1.2; EE (%) [1, 10]: 98.8%; PDI [2, 10]: 0.200; Size (nm) [2, 11]: 95.8 nm; Total Flux 6 hours [6]: 5.67E+10; Total Flux Liver [7]: 1.21E+10; Total Flux Spleen [7]: 6.65E+07; % dose remainng Rat liver (48 h) [8]: 38.45%; % Dose remaining 6 h CD-1 mice [9]: 49%; % Dose remaining 24 h CD-1 mice [9]: 40%; % dose remaining Mouse liver (24 h) [9]: 40.3%
CCCCCCCCCN(CCCCCCCCC)CCN(CCCCCCCCC)CC(=O)N1CCC(CN(CCCCCCCCC)CCCCCCCCC)C1 (stereo not drawn) [Compound 70, 2-((2-(Dinonylamino)ethyl)(nonyl)amino)-1-(3-((dinonylamino)methyl)pyrrolidin-1-yl)ethan-1-one]	99.14%	0.24	79.8 nm	6.34E+7 p/s*h	
CCCCCCCCCN(CCCCCCCCC)CCN(CCCCCCCCC)CC(=O)N1CCN(C(=O)CN(CCCCCCCCC)CCCC(=O)OCCCCC)CC1 [Compound 45, Pentyl 4-((2-(4-(N-(2-(dinonylamino)ethyl)-N-nonylglycyl)piperazin-1-yl)-2-oxoethyl)(nonyl)amino)butanoate]					pKa [4]: 6.77; AUC (0.1 mpk) (hEPO mRNA expression [5]): 1.45E+06; AUC/MC3 0.1 mpk (hEPO mRNA expression [5]): 0.90; AUC (1 mpk) (hEPO mRNA expression [5]): 2.00E+08; AUC/MC3 1 mpk (hEPO mRNA expression [5]): 1.7; EE (%) [1, 10]: 94.9%; PDI [2, 10]: 0.200; Size (nm) [2, 11]: 100.2 nm; Total Flux 6 hours [6]: 7.86E+10; Total Flux Liver [7]: 7.87E+09; Total Flux Spleen [7]: 1.70E+08; % dose remainng Rat liver (48 h) [8]: 8.57%; % Dose remaining 6 h CD-1 mice [9]: 33%; % Dose remaining 24 h CD-1 mice [9]: 24%; % dose remaining Mouse liver (24 h) [9]: 23.7%
CCCCCCCCCN(CCCCCCCCC)CCC1CCCN(C(=O)CN(CCCCCCCCC)CCN(CCCCCCCCC)CCCCCCCCC)C1 (stereo not drawn) [Compound 73, 2-((2-(Dinonylamino)ethyl)(nonyl)amino)-1-(3-(2-(dinonylamino)ethyl)piperidin-1-yl)ethan-1-one]	98.85%	0.25	84.3 nm	1.41E+8 p/s*h	
CCCCCCCCCN(CCCC(=O)OCCCCC)CCC1CCN(C(=O)CN(CCCCCCCCC)CCN(CCCCCCCCC)CCCCCCCCC)C1 (stereo not drawn) [Compound 81, Pentyl 4-((2-(1-(N-(2-(dinonylamino)ethyl)-N-nonylglycyl)pyrrolidin-3-yl)ethyl)(nonyl)amino)butanoate]	99.27%	0.17	65.3 nm	1.08E+8 p/s*h	
CCCCCCCCCN(CCCC(=O)OCCCCC)CCC1CCN(C(=O)CN(CCCCCCCCC)CCN(CCCCCCCCC)CCCCCCCCC)CC1 [Compound 83, Pentyl 4-((2-(1-(N-(2-(dinonylamino)ethyl)-N-nonylglycyl)piperidin-4-yl)ethyl)(nonyl)amino)butanoate]	99.12%	0.22	73.2 nm	5.21E+7 p/s*h	
CCCCCCCCCN(CCCCCCCCC)CCC1CCN(C(=O)CN(CCCCCCCCC)CCN(CCCCCCCCC)CCCCCCCCC)C1 (stereo not drawn) [Compound 69, 2-((2-(Dinonylamino)ethyl)(nonyl)amino)-1-(3-(2-(dinonylamino)ethyl)pyrrolidin-1-yl)ethan-1-one]	99.31%	0.24	74.4 nm	2.33E+8 p/s*h	
CCCCCCCCCN(CCCC(=O)OCCCCC)CCC(=O)N1CCN(C(=O)CCN(CCCCCCCCC)CCN(CCCCCCCCC)CCCCCCCCC)CC1 [Compound 62, Pentyl 4-((3-(4-(3-((2-(dinonylamino)ethyl)(nonyl)amino)propanoyl)piperazin-1-yl)-3-oxopropyl)(nonyl)amino)butanoate]	97.73%	0.18	61.7 nm	3.46E+7 p/s*h	

Second part, led by results:

EE (%) ([1]; Table 1b)	PDI ([2]; Table 1b)	Size (nm) ([2]; Table 1b)	SMILES	AUC (p/s*h) CD-1 mice 0.5 mpk (hEPO mRNA expression [3])	further results
98.48%	0.19	68.6 nm	CCCCCCCCCN(CCCC(=O)OCCCCC)CCCC1CCN(C(=O)CCN(CCCCCCCCC)CCN(CCCCCCCCC)CCCCCCCCC)CC1 [Compound 84, Pentyl 4-((3-(1-(3-((2-(dinonylamino)ethyl)(nonyl)amino)propanoyl)piperidin-4-yl)propyl)(nonyl)amino)butanoate]	5.10E+7 p/s*h	
99.18%	0.24	69.9 nm	CCCCCCCCCN(CCCCCCCCC)CCCC1CCN(C(=O)CCN(CCCCCCCCC)CCN(CCCCCCCCC)CCCCCCCCC)CC1 [Compound 85, 3-((2-(Dinonylamino)ethyl)(nonyl)amino)-1-(4-(3-(dinonylamino)propyl)piperidin-1-yl)propan-1-one]	1.27E+8 p/s*h	
98.67%	0.21	80.9 nm	CCCCCCCCCN(CCCOC(=O)CCCCC)CCCC1CCN(C(=O)CCN(CCCCCCCCC)CCN(CCCCCCCCC)CCCCCCCCC)CC1 [Compound 87, 3-((3-(1-(3-((2-(Dinonylamino)ethyl)(nonyl)amino)propanoyl)piperidin-4-yl)propyl)(nonyl)amino)propyl Hexanoate]	2.86E+7 p/s*h	
97.42%	0.14	53.6 nm	CCCCCCCCCN(CCCOC(=O)CCCCC)CCC(=O)N1CCN(C(=O)CCN(CCCCCCCCC)CCN(CCCCCCCCC)CCCCCCCCC)CC1 [Compound 86, 3-((3-(4-(3-((2-(Dinonylamino)ethyl)(nonyl)amino)propanoyl)piperazin-1-yl)-3-oxopropyl)(nonyl)amino)propyl Hexanoate]	1.75E+7 p/s*h	
